Active and inactive are the calls of the source. No cut-off for these calls is given here.
What was measured:
[1] = tested on: NIH3T3; test: Effect on morphology of endoplasmic reticulum in mouse 3T3 cells after 24 hrs by anti-KDEL immunofluorescence in presence of TNFalpha and zVAD-fmk; type: functional, cell-based
[2] = tested on: Jurkat; test: Antiproliferative activity against human Jurkat cells; type: functional, cell-based
[3] = tested on: Jurkat; test: Effect on apoptosis in human Jurkat cell assessed as chromatin marginalization by electron microscopy in presence of FasL and CHX; type: functional, cell-based
[4] = tested on: Jurkat; test: Effect on plasma membrane integrity in human Jurkat cells; type: functional, cell-based
[5] = tested on: Jurkat; test: Inhibition of necrosis in human Jurkat cells assessed as early loss of plasma membrane integrity by bright field microscopy in presence of FasL, CHX and zVAD-fmk; type: functional, cell-based
[6] = tested on: NIH3T3; test: Effect on microtubule cytoskeleton in mouse 3T3 cells after 24 hrs by anti-tubulin immunofluorescence method in presence of TNFalpha and zVAD-fmk; type: functional, cell-based
[7] = tested on: Jurkat; test: Inhibition of necrosis in human Jurkat cells assessed as organelle swelling by bright field microscopy in presence of FasL, CHX and zVAD-fmk; type: functional, cell-based
[8] = Inhibition of death receptor signaling mediated necroptotic cell death in human Jurkat cell deficient in FADD assessed as inhibition of plasma membrane permeability after 24 hrs by in presence of TNFalpha; type: cell-based
[9] = tested on: Jurkat; test: Effect on ATP level in human Jurkat cells; type: functional, cell-based
[10] = Inhibition of death receptor signaling mediated necroptotic cell death in mouse 3T3 cells assessed as decreased levels of PE-conjugated autophagy marker LC3-II after 24 hrs by Western blot method in presence of TNFalpha and zVAD-fmk; type: cell-based; conditions: NIH3T3
[11] = Inhibition of death receptor signaling mediated necrotic cell death in rat IEC18 cells assessed as cell viability in presence of TNFalpha and zVAD.fmk; type: cell-based
[12] = Inhibition of death receptor signaling mediated necroptotic cell death in human Jurkat cells deficient in FADD and expressing FKBP12-based dimerization domain assessed as cell viability after 48 hrs by FACS in presence of AP1510, zVAD-fmk
[13] = tested on: U-937; test: Inhibition of oxidative stress induced necrosis in human U937 cells after 24 hrs in presence of menadione; type: functional, cell-based
[14] = Inhibition of death receptor signaling mediated necroptotic cell death in human Jurkat cell deficient in FADD assessed as cytoprotection after 30 hrs by in presence of TNFalpha; type: cell-based
[15] = tested on: Jurkat; test: Effect on cell cycle in human Jurkat cells deficient in FADD assessed as cells in G1 phase in presence of TNFalpha relative to control; type: functional
[16] = Inhibition of death receptor signaling mediated necroptotic cell death in human Jurkat cell deficient in FADD assessed as changes in cell size after 24 hrs by forward and side scatter FACS analysis in presence of TNFalpha; type: cell-based
[17] = tested on: Jurkat; test: increase in intracellular ROS level in human Jurkat cells; type: functional, cell-based
[18] = tested on: Jurkat; test: Effect on cell cycle in human Jurkat cells deficient in FADD assessed as cells in sub-G1 phase relative to control; type: functional
[19] = Inhibition of death receptor signaling mediated apoptosis in human Jurkat cell assessed as cytoprotection after 30 hrs by in presence of FasL, CHX and zVAD.fmk; type: cell-based
[20] = tested on: Jurkat; test: Effect on mitochondrial membrane potential in human Jurkat cells; type: functional, cell-based
[21] = tested on: Jurkat; test: Effect on apoptosis in human Jurkat cell assessed as nuclear fragmentation by electron microscopy in presence of FasL and CHX; type: functional, cell-based
[22] = tested on: Jurkat; test: Effect on cell cycle in human Jurkat cells deficient in FADD assessed as cells in G2/M phase relative to control; type: functional
[23] = tested on: NIH3T3; test: Effect on actin cytoskeleton in mouse 3T3 cells after 24 hrs by phalloidin-TRITC staining in presence of TNFalpha and zVAD-fmk; type: functional, cell-based
[24] = Inhibition of death receptor signaling mediated necroptotic cell death in mouse 3T3 cells assessed as decreased levels of PE-conjugated autophagy marker LC3-II after 24 hrs by Western blot method in presence of FasL and zVAD-fmk; type: cell-based; conditions: NIH3T3
[25] = Inhibition of death receptor signaling mediated necrotic cell death in human Jurkat cell expressing FADD fused to FKBP12-based dimerization domain (JK-FF)assessed as cell viability after 48 hrs by ATP based viability assay in presence of AP20187 and zVAD.fmk
[26] = Inhibition of death receptor signaling mediated necrotic cell death in human Jurkat cell assessed as cell viability after 30 hrs by ATP based viability assay in presence of FasL, CHX, zVAD.fmk
[27] = Inhibition of death receptor signaling mediated necroptotic cell death in human U937 cell assessed as cell viability after 72 hrs by ATP based viability assay in presence of TNFalpha and zVAD.fmk; conditions: U-937
[28] = tested on: Jurkat; test: Effect on cell cycle in human Jurkat cells deficient in FADD assessed as cells in G1 phase relative to control; type: functional
[29] = tested on: Jurkat; test: Effect on changes in cell size in human Jurkat cells; type: functional, cell-based
[30] = tested on: Jurkat; test: Induction of proliferative capacity in necroptotic human Jurkat cell deficient in FADD assessed as cell viability; type: functional, cell-based
[31] = Inhibition of death receptor signaling mediated necrotic cell death in mouse L929 cells assessed as cell viability after 24 hrs by ATP based viability assay in presence of TNFalpha
[32] = tested on: Jurkat; test: Effect on apoptosis in human Jurkat cell assessed as cytoplasm condensation by electron microscopy in presence of FasL and CHX; type: functional, cell-based
[33] = tested on: Jurkat; test: Inhibition of necrosis in human Jurkat cells assessed as nuclear condensation by bright field microscopy in presence of FasL, CHX and zVAD-fmk; type: functional, cell-based
[34] = tested on: NIH3T3; test: Effect on morphology of golgi apparatus in mouse 3T3 cells after 24 hrs by anti-giantin immunofluorescence in presence of TNFalpha and zVAD-fmk; type: functional, cell-based
[35] = Inhibition of death receptor signaling mediated necroptotic cell death in human U937 cells assessed as cell viability after 48 hrs by ATP based viability assay in presence of TNFalpha and zVAD-fmk; conditions: U-937
[36] = tested on: Jurkat; test: Inhibition of necrosis in human Jurkat cells deficient in FADD assessed as inhibition of organelle swelling by bright field microscopy in presence of TNFalpha; type: functional, cell-based

SMILES: CN1C(=O)C(Cc2c[nH]c3ccccc23)NC1=S (stereo unspecified) [NECROSTATIN]
- Activity [1]: inactive
- Activity [2]: inactive
- Activity [3]: inactive
- Activity [4]: inactive
- inhibition [5]: Active
- Activity [6]: inactive
- inhibition [7]: Active
- inhibition [8]: Active
- Activity [9]: inactive
- inhibition [10]: Active
- inhibition [11]: Active
- inhibition [12]: Active
- inhibition [13]: inactive
- inhibition [14]: Active
- Activity [15]: 43.1%
- inhibition [16]: Active
- Activity [17]: inactive
- Activity [18]: 0.7%
- inhibition [19]: inactive
- Activity [20]: inactive
- Activity [21]: inactive
- Activity [22]: 13.5%
- Activity [23]: inactive
- inhibition [24]: Active
- inhibition [25]: Active
- inhibition [26]: Active
- inhibition [27]: Dose-dependent effect
- Activity [28]: 41.5%
- Activity [29]: inactive
- Activity [30]: Active
- inhibition [31]: Active
- Activity [32]: inactive
- inhibition [33]: Active
- Activity [34]: inactive
- inhibition [35]: Active
- inhibition [36]: Active
